Experimental data reported in patent US6632829B2, “Sulfonamides and derivatives thereof that modulate the activity of endothelin” (Texas Biotechnology Corp., priority 1996, dated 2003).

Biological target: T1, human ETB receptor (Homo sapiens, UniProt P24530)
T1 construct: expressed in transfected cells; host or cells: COS7 cells
T1 sequence (P24530 27-442): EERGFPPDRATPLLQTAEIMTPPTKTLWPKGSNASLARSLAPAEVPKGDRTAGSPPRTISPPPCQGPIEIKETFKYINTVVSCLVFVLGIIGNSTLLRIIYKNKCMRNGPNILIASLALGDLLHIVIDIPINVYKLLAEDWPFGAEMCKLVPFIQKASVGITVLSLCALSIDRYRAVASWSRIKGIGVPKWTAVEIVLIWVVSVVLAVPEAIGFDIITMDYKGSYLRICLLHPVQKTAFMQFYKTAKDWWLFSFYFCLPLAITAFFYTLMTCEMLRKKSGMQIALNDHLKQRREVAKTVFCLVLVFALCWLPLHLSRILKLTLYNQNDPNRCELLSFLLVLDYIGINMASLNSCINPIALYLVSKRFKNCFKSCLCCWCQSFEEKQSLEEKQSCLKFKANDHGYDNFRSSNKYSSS
Test: Endothelin binding inhibition, Binding Test #2: competition with 125I-ET-1 for ETB receptors on transfected COS7 cell membranes
Conditions: incubation at 24° C. (values marked †)
In short: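 Membranes from COS7 cells transfected with human ETB receptor, prepared in HEPES pH 7.4 with aprotinin, MnCl2/DNase treatment at 37° C for 30 min. Test compounds compete with 125I-labeled ET-1 for receptor binding; membrane used at 1 μg/50 μL binding buffer.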

IC50: 18.7 µM
Compound: Cc1cc(C)c(NC(=O)c2sccc2S(=O)(=O)Nc2onc(C)c2Cl)c(C)c1O [N-(4-chloro-3-methyl-5-isoxazolyl)-2-(3-hydroxy-2,4,6-trimethylphenylaminocarbonyl)thiophene-3-sulfonamide]
